≈ marks a conversion by molar mass, not a printed value.
Legend:
[1] = Kinetic solubility of the compound at pH 7.4 by chemiluminescence nitrogen detection method; format: physicochemical; conditions: buffer, read-out: Kinetic_solubility
[2] = target: T1, Long-chain-fatty-acid--AMP ligase FadD32 (Mycobacterium tuberculosis (strain ATCC 25618 / H37Rv)) (UniProt O53580); experiment: Inhibition of Mycobacterium tuberculosis H37Rv FadD32 assessed as reduction in bacterial viability after 6 days by resazurin dye based fluorescence assay
T1 sequence (whole entry): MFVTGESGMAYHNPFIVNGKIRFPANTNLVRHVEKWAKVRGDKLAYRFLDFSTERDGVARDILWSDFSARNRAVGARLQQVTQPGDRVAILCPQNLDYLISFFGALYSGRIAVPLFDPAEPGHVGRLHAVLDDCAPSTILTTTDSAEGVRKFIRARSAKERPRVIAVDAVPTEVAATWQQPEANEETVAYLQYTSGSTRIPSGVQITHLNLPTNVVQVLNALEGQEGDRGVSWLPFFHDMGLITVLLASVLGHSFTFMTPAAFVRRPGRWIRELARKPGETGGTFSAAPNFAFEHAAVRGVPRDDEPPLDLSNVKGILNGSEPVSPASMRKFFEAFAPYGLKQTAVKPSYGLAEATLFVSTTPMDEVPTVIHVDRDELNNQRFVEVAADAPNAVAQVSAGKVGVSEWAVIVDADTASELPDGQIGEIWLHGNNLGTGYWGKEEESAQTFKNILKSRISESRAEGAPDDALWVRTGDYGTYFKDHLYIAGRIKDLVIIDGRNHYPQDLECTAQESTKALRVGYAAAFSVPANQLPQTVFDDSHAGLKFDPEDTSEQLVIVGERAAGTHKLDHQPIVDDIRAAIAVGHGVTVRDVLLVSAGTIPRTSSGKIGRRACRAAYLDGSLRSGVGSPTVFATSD

[3] = Plasma clearance in mouse at 1 mg/kg, iv; format: ADME, organism-based
[4] = Metabolic stability in mouse liver microsomes at 1 uM after 60 mins by UPLC-MS/MS analysis; format: ADME, microsome; conditions: for remaining at 1 h, 1 µM: liver microsomes, read-out: Stability
[5] = Protein binding in mouse plasma a 5 uM after 5 hrs by UPLC-MS based rapid equilibrium dialysis method; format: ADME, cell-free
[6] = Protein binding in human plasma a 5 uM after 5 hrs by UPLC-MS based rapid equilibrium dialysis method; format: ADME, cell-free
[7] = Metabolic stability in human liver microsomes at 1 uM after 60 mins by UPLC-MS/MS analysis; format: ADME, microsome; conditions: for remaining at 1 h, 1 µM: liver microsomes, read-out: Stability
HepG2 = experiment: Cytotoxicity against human HepG2 cells after 48 hrs by CellTiter-Glo assay; format: cell-based; conditions: HepG2, 48 h
[8] = tested on: Mycobacterium tuberculosis; experiment: Antimycobacterial activity against Mycobacterium tuberculosis H37Rv infected in C57BL/6J mouse assessed as log reduction in bacterial load in lungs up to 50 mg/kg, po qd via gavage up to day 8 post infection starting from day 1 post infection measured on day 9; format: functional
[9] = tested on: Mycobacterium tuberculosis; experiment: Antimycobacterial activity against Mycobacterium tuberculosis H37Rv infected in C57BL/6J mouse assessed as 2 log reduction in bacterial load in lungs administered po qd via gavage up to day 8 post infection starting from day 1 post infection measured on day 9; format: functional
[10] = tested on: Mycobacterium tuberculosis; experiment: Antimycobacterial activity against Mycobacterium tuberculosis H37Rv infected in C57BL/6J mouse assessed as reduction in bacterial load in lungs administered po qd via gavage up to day 8 post infection starting from day 1 post infection measured on day 9; format: functional, organism-based
Mus musculus = experiment: Toxicity in C57BL/6J mouse infected with Mycobacterium tuberculosis H37Rv assessed as mortality up to 50 mg/kg, po qd via gavage up to day 8 post infection starting from day 1 post infection measured daily; format: organism-based; conditions: in vivo
[11] = Drug level treated with 4-(4-fluorophenyl)-5,7-dimethyl-6-(4-(morpholinomethyl)phenyl)-2H-chromen-2-one under basic condition after 18 hrs at room temperature in presence of morpholine; format: physicochemical
[12] = tested on: Mycobacterium tuberculosis; experiment: Antimycobacterial activity against Mycobacterium tuberculosis; format: functional

SMILES | solubility kinetic [1] | MIC90 [2] | other results
Cc1cc2nc(C(=O)N3CCOCC3)cc(-c3ccccc3Cl)c2c(C)c1-c1ccncc1 | 145 µM (≈ 66.4 µg/mL) | 15 µM (≈ 6.87 µg/mL) | –
Cc1cc2nc(C(=O)NCCF)cc(-c3ccccc3Cl)c2c(C)c1-c1ccncc1 | 5 µM (≈ 2.17 µg/mL) | 1.25 µM (≈ 0.542 µg/mL) | –
Cc1cc2nccc(-c3cncnc3)c2c(C)c1-c1ccc(CN2CCOCC2)cc1 | > 230 µM | 2.5 µM (≈ 1.03 µg/mL) | clearance [3]: 65.1 mL/min/kg; Stability ([4]; microsomes, 1 h, 1 µM): < 5%; PPB [5]: 92.8%; PPB [6]: 95.2%; Stability ([7]; microsomes, 1 h, 1 µM): 11.6%
Cc1cc2nc(C(=O)NCCN(C)C)cc(-c3ccccc3Cl)c2c(C)c1-c1ccncc1 | 263 µM (≈ 121 µg/mL) | 0.3 µM (≈ 0.138 µg/mL) | remaining at 1 h, 1 µM [4]: 24%; IC50 (HepG2): 16 µM; remaining at 1 h, 1 µM [7]: 3.2%
CNC(=O)c1cc(-c2ccccc2Cl)c2c(C)c(-c3ccncc3)c(C)cc2n1 | 15 µM (≈ 6.03 µg/mL) | 0.8 µM (≈ 0.322 µg/mL) | remaining at 1 h, 1 µM [4]: 19.1%; Activity [8]: 4 deltalog10CFU; ED99 [9]: 7.8 mg/kg; Activity [10]: Dose-dependent effect; IC50 (HepG2): 60 µM; Activity (Mus musculus): Non-Toxic; remaining at 1 h, 1 µM [7]: 19.4%
Cc1cc2nc(C(N)=O)cc(-c3ccccc3Cl)c2c(C)c1-c1ccncc1 | 8 µM (≈ 3.1 µg/mL) | 1.25 µM (≈ 0.485 µg/mL) | –
Cc1cc(O)c(/C(=C\C(=O)N2CCOCC2)c2ccc(F)cc2)c(C)c1-c1ccc(CN2CCOCC2)cc1 | – | – | Drug metabolism [11]: Metabolite_Detected
Cc1cc2oc(=O)cc(-c3cccc(N)c3)c2c(C)c1-c1ccc(CN2CCOCC2)cc1 | – | – | MIC90 [12]: 0.24 to 5.6 µM (≈ 0.106 to 2.47 µg/mL)
Cc1cc2nc(C(=O)N3CCNCC3)cc(-c3ccccc3Cl)c2c(C)c1-c1ccncc1 | – | 10 µM (≈ 4.57 µg/mL) | –
COc1ncccc1-c1ccnc2cc(C)c(-c3ccc(CN4CCOCC4)cc3)c(C)c12 | 1 µM (≈ 0.44 µg/mL) | 2.5 µM (≈ 1.1 µg/mL) | –
Cc1cc2nccc(-c3ccccc3C(=O)O)c2c(C)c1-c1ccc(CN2CCOCC2)cc1 | 222 µM (≈ 100 µg/mL) | 40 µM (≈ 18.1 µg/mL) | –
Cc1cc2nc(C(=O)N(C)C)cc(-c3ccccc3Cl)c2c(C)c1-c1ccncc1 | 157 µM (≈ 65.3 µg/mL) | 20 µM (≈ 8.32 µg/mL) | –
CCOC(=O)c1cc(-c2ccccc2Cl)c2c(C)c(-c3ccncc3)c(C)cc2n1 | 9 µM (≈ 3.75 µg/mL) | 10 µM (≈ 4.17 µg/mL) | –
Cc1cc2nccc(-c3ccnn3C)c2c(C)c1-c1ccc(CN2CCOCC2)cc1 | 243 µM (≈ 100 µg/mL) | 2.5 µM (≈ 1.03 µg/mL) | –
Cc1cc2nccc(-c3cccc(Cl)c3)c2c(C)c1-c1ccc(CN2CCOCC2)cc1 | 1 µM (≈ 0.443 µg/mL) | 1.5 µM (≈ 0.664 µg/mL) | –
Cc1cc2nccc(-c3ccc(Cl)cc3)c2c(C)c1-c1ccc(CN2CCOCC2)cc1 | – | > 80 µM | –
Cc1cc2occ(-c3ccccc3)c2c(C)c1-c1ccc(CN2CCOCC2)cc1 | – | 2.5 µM (≈ 0.994 µg/mL) | –
Cc1cc2nccc(-c3ccccc3C#N)c2c(C)c1-c1ccc(CN2CCOCC2)cc1 | 24 µM (≈ 10.4 µg/mL) | 2.5 µM (≈ 1.08 µg/mL) | –

SMILES | solubility kinetic [1] | MIC90 [2] | other results
Cc1cc2nccc(-c3ccccc3Cl)c2c(C)c1-c1ccc(CN2CCOCC2)cc1 | – | 0.3 µM (≈ 0.133 µg/mL) | –
Cc1cc2nc(C(C)(C)O)cc(-c3ccccc3Cl)c2c(C)c1-c1ccncc1 | 38 µM (≈ 15.3 µg/mL) | > 40 µM | –
Cc1cc2nccc(-c3ccccc3)c2c(C)c1-c1ccc(CN2CCOCC2)cc1 | – | 0.45 µM (≈ 0.184 µg/mL) | –
CCc1ccccc1CNc1ccnc2cc(C)c(-c3ccc(CN4CCOCC4)cc3)c(C)c12 | 59 µM (≈ 27.5 µg/mL) | 2.5 µM (≈ 1.16 µg/mL) | –
COc1ccncc1-c1ccnc2cc(C)c(-c3ccc(CN4CCOCC4)cc3)c(C)c12 | 169 µM (≈ 74.3 µg/mL) | 2.5 µM (≈ 1.1 µg/mL) | –
Cc1cccc(C)c1-c1ccnc2cc(C)c(-c3ccc(CN4CCOCC4)cc3)c(C)c12 | – | 5 µM (≈ 2.18 µg/mL) | –
Cc1cc2[nH]c(=O)cc(-c3ccccc3)c2c(C)c1-c1ccc(CN2CCOCC2)cc1 | – | > 40 µM | –
Cc1cc2nccc(-c3ccccc3C(N)=O)c2c(C)c1-c1ccc(CN2CCOCC2)cc1 | – | 20 µM (≈ 9.03 µg/mL) | –
Cc1cc2nc(CO)cc(-c3ccccc3Cl)c2c(C)c1-c1ccncc1 | 32 µM (≈ 12 µg/mL) | 3.75 µM (≈ 1.41 µg/mL) | –
Cc1cc2nccc(-c3cccnc3)c2c(C)c1-c1ccc(CN2CCOCC2)cc1 | 209 µM (≈ 85.6 µg/mL) | 5 µM (≈ 2.05 µg/mL) | –
Cc1cc2nccc(-c3ccccc3Cl)c2c(C)c1-c1ccncc1 | 21 µM (≈ 7.24 µg/mL) | 5 µM (≈ 1.72 µg/mL) | –
Cc1cc2oc(=O)cc(-c3ccccc3)c2c(C)c1-c1ccc(CN2CCOCC2)cc1 | – | – | MIC90 [12]: 0.24 to 5.6 µM (≈ 0.102 to 2.38 µg/mL)
Cc1cc2nc(C(=O)NCCO)cc(-c3ccccc3Cl)c2c(C)c1-c1ccncc1 | 25 µM (≈ 10.8 µg/mL) | 0.3 µM (≈ 0.13 µg/mL) | remaining at 1 h, 1 µM [4]: 26.2%; IC50 (HepG2): 100 µM; remaining at 1 h, 1 µM [7]: 8%
Cc1cc2oc(=O)cc(-c3ccccc3)c2c(C)c1-c1ccncc1 | – | – | MIC90 [12]: 0.24 to 5.6 µM (≈ 0.0786 to 1.83 µg/mL)
Cc1cc2nc(C(=O)N3CCCC3)cc(-c3ccccc3Cl)c2c(C)c1-c1ccncc1 | 41 µM (≈ 18.1 µg/mL) | 5 µM (≈ 2.21 µg/mL) | –
Cc1cc2nc(C(=O)O)cc(-c3ccccc3Cl)c2c(C)c1-c1ccncc1 | 226 µM (≈ 87.9 µg/mL) | 80 µM (≈ 31.1 µg/mL) | –
Cc1cc2nc(C(=O)NC(C)C)cc(-c3ccccc3Cl)c2c(C)c1-c1ccncc1 | 4 µM (≈ 1.72 µg/mL) | 2.5 µM (≈ 1.07 µg/mL) | –
COc1cccc(-c2ccnc3cc(C)c(-c4ccc(CN5CCOCC5)cc4)c(C)c23)c1Cl | 2 µM (≈ 0.946 µg/mL) | 10 µM (≈ 4.73 µg/mL) | –
